Consider 14 compounds from patent US5770734A, “N-substituted-2-aminoquinolines useful for treating hypofunction of the cholinergic system” (American Home Products Corporation, priority 1992, dated 1998).

One assay has as its target T1, M1 muscarinic receptor (Rattus norvegicus, UniProt P08482).
T1 sequence (P08482 1-460): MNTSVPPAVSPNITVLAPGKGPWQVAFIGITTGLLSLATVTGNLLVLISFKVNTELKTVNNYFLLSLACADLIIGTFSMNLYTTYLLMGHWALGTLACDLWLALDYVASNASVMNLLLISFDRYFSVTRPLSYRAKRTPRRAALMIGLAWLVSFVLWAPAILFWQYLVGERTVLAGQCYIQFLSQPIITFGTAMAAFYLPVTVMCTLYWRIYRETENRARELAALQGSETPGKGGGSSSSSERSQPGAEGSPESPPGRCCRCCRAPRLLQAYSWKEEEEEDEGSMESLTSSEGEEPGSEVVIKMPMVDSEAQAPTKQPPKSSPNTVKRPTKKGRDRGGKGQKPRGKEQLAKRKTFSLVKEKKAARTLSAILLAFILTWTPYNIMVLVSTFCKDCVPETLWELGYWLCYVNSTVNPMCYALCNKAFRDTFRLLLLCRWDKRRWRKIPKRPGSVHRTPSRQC
Kind of assay: M1 receptor binding ([^3 H]-pirenzepine). Further details: species or system rat (male Sprague-Dawley). Here is the method: Compounds are tested for their ability to affect M1 muscarinic binding through use of [^3 H]-pirenzepine ([^3 H]PZ) as a prototypic M1 receptor ligand. Male Sprague-Dawley (Charles River) rats are used. Dose selection is typically in the concentration range of 10^-9 to 10^-4 M. Test and reference compounds are dissolved and diluted in water or ethanol and are then added to the assay buffer. The appropriate vehicle is added to the assay buffer for control testing.
The rats (approximately 300 gm body weight) have free access to food and water and are housed in groups of four to six. On the test day, the rats are euthanized by decapitation and brain tissue is dissected and homogenized using a hand-held teflon-coated pestle, in 20 volumes of 0.32M sucrose (20 strokes at 4° C.). After centrifugation (747×g for 10 minutes at 4° C.), the resultant supernatant is decanted and recentrifuged (18677×g for 20 minutes at 4° C.). The resultant pellet is resuspended in the original volume of 0.32M sucrose and frozen. After thawing, the suspension is diluted (1:1 v/v) with 10 mM Na2 HPO4 /KH2 PO4 buffer (pH=7.4). [^3 H]PZ (0.5 nM, 0.04 μCi) is then incubated with a 100 μl sample of the tissue suspension in the above buffer (1 ml final volume, including a 10 μl sample of test compound or vehicle). […] After 60 minutes of incubation at 25° C. (in the dark), the binding is terminated by vacuum filtration onto Whatman GF/B filters (pre-soaked for 60 minutes in 0.1% (w/v) polyethylenimine to reduce non-specific binding). After three washes with the previously mentioned buffer (4° C., 3 ml/wash), the vacuum is allowed to run for two minutes before the filter-trapped radioactivity is assayed by liquid scintillation spectroscopy.
Data are presented as the percent inhibition ([control-test]/control×100%) or enhancement ([test-control]/control×100%) of [^3 H]PZ binding by the test or reference compound. The IC50 value (the drug concentration which causes a 50% inhibition of specific [^3 H]PZ binding) is calculated through the use of the EDOSE program (with probit transformation written by a person for use in STAT80). Increases in [^3 H]PZ are reported as percent increase (versus control) for a given test drug concentration.

For assay [1], the target named is T2, M2 receptors (Rattus norvegicus, UniProt P10980).
T2 sequence (P10980 1-466): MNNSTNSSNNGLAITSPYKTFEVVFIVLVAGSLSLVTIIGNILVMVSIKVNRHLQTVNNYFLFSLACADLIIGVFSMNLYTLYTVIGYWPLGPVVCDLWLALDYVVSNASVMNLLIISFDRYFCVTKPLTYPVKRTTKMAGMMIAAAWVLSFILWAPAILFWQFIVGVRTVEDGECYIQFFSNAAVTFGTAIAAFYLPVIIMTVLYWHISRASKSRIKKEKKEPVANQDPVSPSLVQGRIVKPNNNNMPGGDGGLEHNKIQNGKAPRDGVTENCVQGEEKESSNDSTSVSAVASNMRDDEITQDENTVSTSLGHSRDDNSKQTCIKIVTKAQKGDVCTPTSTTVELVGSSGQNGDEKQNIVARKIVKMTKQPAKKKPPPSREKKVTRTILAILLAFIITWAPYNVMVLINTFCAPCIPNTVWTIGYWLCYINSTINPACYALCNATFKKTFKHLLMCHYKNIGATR
The assay is described as follows: biochemical. Format: binding.

Assay [2] has as its system M2 receptors. Kind of assay: biochemical. Format: binding. Particulars: Table 1; ratio of M2 IC50 to M1 IC50.
The mark [3] stands for this setting: Table 1, rat brain tissue, [^3 H]PZ 0.5 nM, read-out: ^3 H-Pirenzepine M1 IC50.

In general, IC50 refers to the concentration that inhibits the measured activity by half.

Where a name gives a salt, the structure may show the parent alone. Read-outs that look alike come from different tables or passages of the source.

For the compound “3-[[[(3-chlorophenyl)amino]carbonyl]oxy]-N,N,N-trimethyl-1-propynaminium chloride [reference compound]”, the IC50 on M1 muscarinic receptor (typical results, reference drugs, read-out: IC50, [^3 H]PZ binding (M1)) turned out to be 1.3 µM; on M2 receptors [1] (typical results, reference drugs, read-out: IC50, [^3 H]QNB binding (M2)) it was 42 µM.

`Cl.Cl.c1ccc2nc(NCCCN3CCOCC3)ccc2c1` [Example 2, N-[3-(4-Morpholinyl)propyl]-2-quinolinamine dihydrochloride]: the IC50 on M1 muscarinic receptor (setting [3]) turned out to be 2.5 µM; at M2 receptors [1] (read-out: ^3 H-QNB M2 IC50), 116 µM. Further, in the assay on M2 receptors [2], the M2/M1 worked out at 46.

In the case of `Cc1cc(NCCCN2CCN(C)CC2)nc2ccccc12` [Example 3, 4-Methyl-N-[3-(4-methyl-1-piperazinyl)propyl]-2-quinolinamine (E)-2-butenedioate (1:2) hemihydrate], the values for the concentration for half-maximal inhibition (IC50) at M1 muscarinic receptor (setting [3]) and on M2 receptors [1] (read-out: ^3 H-QNB M2 IC50) were 0.6 µM and 28 µM, respectively. Moreover, in the assay with M2 receptors [2], the M2/M1 came out at 46.

Regarding `Cc1cc(NCCCCN2CCOCC2)nc2ccccc12` [Example 4, 4-Methyl-N-[4-(4-morpholinyl)butyl]-2-quinolinamine (E)-2-butenedioate (1:1.15)], the IC50 at M1 muscarinic receptor (setting [3]) came to 0.54 µM; at M2 receptors [1] (read-out: ^3 H-QNB M2 IC50), 22 µM. Further, the M2/M1 in the assay on M2 receptors [2] is 41.

`Cc1cc(NCCN2CCOCC2)nc2ccccc12` [Example 5, 4-Methyl-N-[2-(4-morpholinyl)ethyl]-2-quinolinamine (E)-2-butenedioate (3:2) quarter hydrate]: the IC50 at M1 muscarinic receptor (setting [3]) came to 9.7 µM; on M2 receptors [1] (read-out: ^3 H-QNB M2 IC50), 200 µM. The M2/M1 with M2 receptors [2] is on record as 21.

Take `Cc1cc(NCCCCN2CCN(C)CC2)nc2ccccc12` [Example 6, 4-Methyl-N-[4-(4-methyl-1-piperazinyl)butyl]-2-quinolinamine (E)-2-butenedioate (1:2) one and three quarter hydrate]: the 50% inhibitory concentration (IC50) on M1 muscarinic receptor (setting [3]) was 0.37 µM; at M2 receptors [1] (read-out: ^3 H-QNB M2 IC50), 5.5 µM. The M2/M1 in the assay with M2 receptors [2] is listed as 15.

Turning to `Cc1cc(NCCCN2CCCC2=O)nc2ccccc12` [Example 7, 4-Methyl-N-[3-(1-pyrrolidin-2-on)propyl]-2-quinolinamine hydrochloride three-quarter hydrate], the figures for the IC50 at M1 muscarinic receptor (setting [3]) and at M2 receptors [1] (read-out: ^3 H-QNB M2 IC50) were 1.3 µM and 20 µM, respectively. In addition, the M2/M1 in the assay with M2 receptors [2] worked out at 15.

On to `Cc1cc(NCCCN2CCCCC2)nc2ccccc12` [Example 8, 4-Methyl-N-[3-(1-piperidinyl)propyl]-2-quinolinamine (E)-2-butenedioate (1:1) hemihydrate], for which the IC50 on M1 muscarinic receptor (setting [3]) amounted to 0.42 µM; on M2 receptors [1] (read-out: ^3 H-QNB M2 IC50) it was 4.6 µM. In addition, the M2/M1 in the assay on M2 receptors [2] worked out at 11.

With `CCc1cc(NCCCN2CCOCC2)nc2ccccc12` [Example 9, 4-Ethyl-N-[3-(4-morpholinyl)propyl]-2-quinolinamine dihydrochloride three quarter hydrate], the values for the IC50 on M1 muscarinic receptor (setting [3]) and at M2 receptors [1] (read-out: ^3 H-QNB M2 IC50) were 2 µM and 44 µM, respectively. The M2/M1 with M2 receptors [2] turned out to be 22.

Regarding `c1ccc2c(C3CCCCC3)cc(NCCCN3CCOCC3)nc2c1` [Example 10, 4-Cyclohexyl-N-[3-(4-morpholinyl)propyl]-2-quinolinamine dihydrochlorideone quarter hydrate], the figures for the IC50 at M1 muscarinic receptor (setting [3]) and on M2 receptors [1] (read-out: ^3 H-QNB M2 IC50) were 2.3 µM and 13 µM, respectively. The M2/M1 in the assay on M2 receptors [2] turned out to be 6.

For `CCN(CC)CCCNc1cc(C)c2ccccc2n1` [Example 11, N,N-Diethyl-N'-(4-methyl-2-quinolinyl)-1,3-propanediamine dihydrochloride hemihydrate], the IC50 at M1 muscarinic receptor (setting [3]) was determined as 0.21 µM; at M2 receptors [1] (read-out: ^3 H-QNB M2 IC50), 18 µM. The M2/M1 with M2 receptors [2] came to 86.

In the case of `Cc1cc(NCCN(C)C)nc2ccccc12.O=C(O)/C=C/C(=O)O` [Example 12, N,N-Dimethyl-N'-(4-methyl-2-quinolinyl)-1,2-ethanediamine (E)-2-butenedioate (1:1)], the figures for the IC50 at M1 muscarinic receptor (setting [3]) and on M2 receptors [1] (read-out: ^3 H-QNB M2 IC50) were 1.32 µM and 35 µM, respectively. Further, the M2/M1 in the assay on M2 receptors [2] was determined as 27.

Take `Cc1cc(NCCCN(C)C)nc2ccccc12.O=C(O)/C=C/C(=O)O.O=C(O)/C=C/C(=O)O` [Example 13, N,N-Dimethyl-N'-(4-methyl-2-quinolinyl)-1,3-propanediamine (E)-2-butenedioate (1:2)]: the figures for the IC50 at M1 muscarinic receptor (setting [3]) and on M2 receptors [1] (read-out: ^3 H-QNB M2 IC50) were 0.82 µM and 21 µM, respectively. Besides, the M2/M1 with M2 receptors [2] is 26.

For `O=C1CCCN1CC#CCN1CCCC1` [Oxotremorine sesquifumarate, reference compound], the 50% inhibitory concentration (IC50) on M1 muscarinic receptor was 0.11 µM; at M2 receptors [1], 1.3 µM.
